The test system of this assay is new D-xylose isomerase (XI) 8454_2 from the gut of Odontotaenius disjunctus, SEQ ID NO: 2. Briefly: Enzymatic activity of xylose isomerase in crude cell extracts, coupled sorbitol dehydrogenase (SDH) assay, NADH depletion at 340 nm. Format: biochemical. The method, then:
This clone was then was cultivated in liquid medium containing xylose as the sole carbon source in parallel with an identical clone carrying the same metabolic pathway, but instead expressing a XI from Piromyces sp (opt.PiXI). Opt.PiXI is a codon-optimized version of the XI gene from Piromyces sp.
Specific enzymatic activity was measured using a coupled enzyme (sorbitol dehydrogenase—SDH) that converts the product of XI (xylulose) into xylitol. In this process, for each molecule of xylose converted to xylulose, a molecule of NADH is converted in NAD+. NADH depletion is quantified by spectrophotometry at an optical density of 340 nm, and XI activity is stoichiometrically inferred. For the enzymatic activity, crude cell extracts were prepared using the same conditions for both strains (carrying 8454_2 or opt.PiXI genes) and immediately used.

For the compound `OC1OC[C@@H](O)[C@H](O)[C@H]1O` (stereo partly drawn) [D-xylose], where the note is “compared with XI from Piromyces sp. (opt.PiXI) under identical biological backgrounds and experimental conditions”, the “isomerization maximal velocity (Vmax) relative to the XI from Piromyces sp.” value is given as “three times higher”. The Km (new XI, expressed in S. cerevisiae) came out at 19 mM.

As usually defined, the Km is the concentration of substrate that gives half-maximal velocity.

These data come from patent publication US20210062178A1, “NOVEL XYLOSE ISOMERASE GENE AND POLYPEPTIDE AND USES THEREOF” (The Regents of the University of California, priority 2019, published 2021).
